# Target: Human FP Receptor (Homo sapiens (Human), UniProt P43088)
# Assay: In vitro test of inhibition of human FP receptor activity, variant B-1A (PGF2α-induced calcium flux in FP-expressing CHEM1 cells)
# Format: cell-based
# Details: calcium flux induced by 3 nM PGF2α, Fluo-8, some mean values from multiple determinations
# From the text: • BSA bovine serum albumin • CRTH2 chemoattractant receptor-homologous molecule expressed on T helper type 2 cells • DMEM Dulbecco's modified Eagle's medium • DMSO dimethyl sulfoxide • DP PGD2 receptor • EC50 half-maximum effective concentration • em. emission • EP PGE2 receptor • ex. excitation • FCS fetal calf serum • FP PGF2α receptor • HEPES 2-[4-(2-hydroxyethyl)piperazin-1-yl]ethanesulfonic acid • IC50 half-maximum inhibitory concentration • IP PGI2 receptor • MES 2-(N-morpholino)ethanesulfonic acid • Pen/Strep penicillin/streptomycin • PGD2 prostaglandin D2 • PGE2 prostaglandin E2 • PGF2α prostaglandin F2α • PGI2 prostaglandin […] • TC tissue culture • TP thromboxane A2 receptor • Tris tris(hydroxymethyl)aminomethane • v/v volume to volume ratio (of a solution) • w/w weight to weight ratio (of a solution) B-1.
# Sequence of Human FP Receptor (P43088 whole entry): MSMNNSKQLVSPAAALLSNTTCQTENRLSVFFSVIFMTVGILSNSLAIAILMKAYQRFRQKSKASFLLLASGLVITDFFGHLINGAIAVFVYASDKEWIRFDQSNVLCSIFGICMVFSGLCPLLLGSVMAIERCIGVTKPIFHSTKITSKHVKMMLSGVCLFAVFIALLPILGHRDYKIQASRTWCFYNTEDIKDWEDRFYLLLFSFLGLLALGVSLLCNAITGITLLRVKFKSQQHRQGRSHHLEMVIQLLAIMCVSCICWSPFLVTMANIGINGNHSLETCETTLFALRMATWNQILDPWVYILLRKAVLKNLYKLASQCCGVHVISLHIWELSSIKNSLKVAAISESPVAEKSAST
row,SMILES,IC50 [nM]
1,"Cc1c(-c2ccccc2)nc2c(C)cc(Br)cc2c1C(=O)Nc1ccc(C(=O)O)cc1 [Example 58, 4-{[(6-Bromo-3,8-dimethyl-2-phenylquinolin-4-yl)carbonyl]amino}benzoic acid]",557
2,"Cc1c(-c2cccc(F)c2)nc2ccc(Br)cc2c1C(=O)Nc1ccc(C(=O)O)cc1F [Example 44, 4-({[6-Bromo-2-(3-fluorophenyl)-3-methylquinolin-4-yl]carbonyl}amino)-3-fluorobenzoic acid]",33
3,"Cc1c(-c2ccccc2)nc2ccc(S(F)(F)(F)(F)F)cc2c1C(=O)Nc1ccc(C(=O)O)cc1F [Example 63, 3-Fluoro-4-({[3-methyl-6-(pentafluoro-λ^6-sulfanyl)-2-phenylquinolin-4-yl]carbonyl}amino)benzoic acid]",246
4,"Cc1c(-c2ccccc2)nc2ccc(Br)cc2c1C(=O)Nc1cnc(C(=O)O)cn1 [Example 3, 5-{[(6-Bromo-3-methyl-2-phenylquinolin-4-yl)carbonyl]amino}pyrazine-2-carboxylic acid]",170
5,"Cc1c(-c2ccc(F)cc2)nc2ccc(Br)cc2c1C(=O)Nc1ccc(C(=O)O)cc1F [Example 43, 4-({[6-Bromo-2-(4-fluorophenyl)-3-methylquinolin-4-yl]carbonyl}amino)-3-fluorobenzoic acid]",52
6,"Cc1c(-c2ccccc2)nc2ccc([Si](C)(C)C)cc2c1C(=O)Nc1ccc(C(=O)O)cc1F [Example 36, 3-Fluoro-4-({[3-methyl-2-phenyl-6-(trimethylsilyl)quinolin-4-yl]carbonyl}amino)benzoic acid]",78
7,"O=C(O)c1ccc(NC(=O)c2c(Cl)c(-c3ccccc3)nc3ccc(I)cc23)c(F)c1 [Example 75, 4-{[(3-Chloro-6-iodo-2-phenylquinolin-4-yl)carbonyl]amino}-3-fluorobenzoic acid]",9
8,"Cc1nc(C(=O)O)ccc1NC(=O)c1c(C)c(-c2ccccc2)nc2ccc(Br)cc12 [Example 5, 5-{[(6-Bromo-3-methyl-2-phenylquinolin-4-yl)carbonyl]amino}-6-methylpyridine-2-carboxylic acid]",905
9,"Cc1c(-c2ccccc2)nc2ccc(Br)cc2c1C(=O)Nc1ccc(C(=O)O)cc1SC(F)(F)F [Example 28, 4-{[(6-Bromo-3-methyl-2-phenylquinolin-4-yl)carbonyl]amino}-3-[(trifluoromethyl)sulfanyl]benzoic acid]",17
10,"Cc1c(-c2ccccc2)nc2ccc(Br)cc2c1C(=O)Nc1ccc(C(=O)O)cc1Br [Example 10, 3-Bromo-4-{[(6-bromo-3-methyl-2-phenylquinolin-4-yl)carbonyl]amino}benzoic acid]",41
11,"CCc1c(-c2ccccc2)nc2ccc(Br)cc2c1C(=O)Nc1ccc(C(=O)O)cc1F [Example 39, 4-{[(6-Bromo-3-ethyl-2-phenylquinolin-4-yl)carbonyl]amino}-3-fluorobenzoic acid]",190
12,"Cc1c(-c2ccccc2)nc2cc(Cl)c(Br)cc2c1C(=O)Nc1ccc(C(=O)O)cc1F [Example 41, 4-{[(6-Bromo-7-chloro-3-methyl-2-phenylquinolin-4-yl)carbonyl]amino}-3-fluorobenzoic acid]",25
13,"CCNC(=O)Nc1cc(C(=O)O)ccc1NC(=O)c1c(C)c(-c2ccccc2)nc2ccc(Br)cc12 [Example 20, 4-{[(6-Bromo-3-methyl-2-phenylquinolin-4-yl)carbonyl]amino}-3-[(ethylcarbamoyl)amino]benzoic acid]",530
14,"Cc1c(-c2ccccc2)nc2ccc(Cl)cc2c1C(=O)Nc1ccc(C(=O)O)cc1F [Example 59, 4-{[(6-Chloro-3-methyl-2-phenylquinolin-4-yl)carbonyl]amino}-3-fluorobenzoic acid]",203
15,"Cc1c(-c2ccccc2)nc2ccc(Br)cc2c1C(=O)Nc1c(F)cc(C(=O)O)cc1F [Example 12, 4-{[(6-Bromo-3-methyl-2-phenylquinolin-4-yl)carbonyl]amino}-3,5-difluorobenzoic acid]",22
